# Paper PMC8279409, “Novel Mixed NOP/Opioid Receptor Peptide Agonists” (Journal of Medicinal Chemistry, 2021)
# Like-named read-outs stand apart in the source and are kept apart here. Where a SMILES comes first, the peptide text is derived from it. Where no end group is shown, it is not given here. [ ]: non-standard residue; d: D form. Abu = CC[C@H](N)C(=O)O
# How the values were obtained:
# human mu receptor = target: T1, human mu receptor (Homo sapiens, UniProt P35372); assay: Calcium mobilization, mu opioid receptor; format: cell-based; details: for mu pEC50 (CL95%): CHO cells coexpressing human mu receptor and Gαqi5, Fluo-4 AM, 37 °C, mean of at least three experiments in duplicate, CL95% in brackets; for pEC50_mu: molecular formula strings CSV, repeats calcium mobilization values of Tables 1-3; for activation at 10 µM: read-out: mu effect at 10 μM (crc incomplete), Table 1 series, mean ± SEM; for activation at 10 µM / Emax: percent over the baseline fluorescence, SEM; for Emax: mean ± SEM of at least three experiments in duplicate
# T1 construct: expressed in transfected cells; host or cells: CHO cells stably coexpressing the receptor and chimeric Gαqi5
# human NOP receptor = target: T2, human NOP receptor (Homo sapiens, UniProt P41146); assay: Calcium mobilization, NOP receptor; format: cell-based; details: for NOP pEC50 (CL95%): CHO cells coexpressing human NOP and Gαqi5, Fluo-4 AM, 37 °C, mean of at least three experiments in duplicate, CL95% in brackets; for NOP/mu CR (concentration ratio): calcium mobilization, NOP versus mu; for Emax: mean ± SEM of at least three experiments in duplicate, SEM
# T2 construct: expressed in transfected cells; host or cells: CHO cells stably coexpressing the receptor and chimeric Gαqi5
# Procedure: CHO cells stably coexpressing the human NOP or kappa or the mu receptor and the C-terminally modified Gαqi5 and CHO cells coexpressing the delta receptor and the GαqG66Di5 protein were generated and cultured as described previously.[45],[46] Cells were maintained in Dulbecco’s modified Eagle’s medium/nutrient mixture F-12 (DEMEM/F-12) supplemented with 10% FBS, 100 U/mL penicillin and 100 μg/mL streptomycin, 100 μg/mL hygromicin B, and 200 μg/mL G418 and cultured at 37 °C in 5% CO2 humidified air. Cells were seeded at a density of 50,000 cells/well into 96-well black, clear-bottom plates. The following day, the cells were incubated with Hanks’ balanced salt solution (HBSS) supplemented with 2.5 mM probenecid, 3 μM of the calcium-sensitive fluorescent dye Fluo-4 AM, and 0.01% pluronic acid for 30 min at 37 °C. After that time, the loading solution was aspirated and 100 μL/well of HBSS supplemented with 20 mM HEPES, 2.5 mM probenecid, and 500 μM brilliant black was added. Serial dilutions were carried out in HBSS/HEPES (20 mM) buffer (containing 0.02% BSA fraction V). After placing both plates (cell culture and master plate) into the fluorometric imaging plate reader FlexStation II (Molecular Devices, Sunnyvale, CA), fluorescence changes were measured. On-line additions were carried out in a volume of 50 μL/well. To facilitate drug diffusion into the wells, the present studies were performed at 37 °C. Maximum change in fluorescence, expressed as percent over the baseline fluorescence, was used to determine agonist response.
# The pharmacological terminology adopted in this paper is consistent with IUPHAR recommendations.[59] All data are expressed as the mean ± standard error of the mean (SEM) of at least three experiments performed in duplicate. […] Concentration-response curves to agonists were fitted to the classical four-parameter logistic nonlinear regression model:
# Effect = Baseline + (Emax – Baseline)/(1 + 10^(LogEC50 – Log[compound]) × Hillslope). Curve fitting was performed using PRISM 6.0 (GraphPad Software Inc., San Diego).
# [1] = read-out: NOP Emax ± S.E.M., Table 1 series, maximum change in fluorescence as percent over the baseline fluorescence
# T2 sequence (P41146 whole entry): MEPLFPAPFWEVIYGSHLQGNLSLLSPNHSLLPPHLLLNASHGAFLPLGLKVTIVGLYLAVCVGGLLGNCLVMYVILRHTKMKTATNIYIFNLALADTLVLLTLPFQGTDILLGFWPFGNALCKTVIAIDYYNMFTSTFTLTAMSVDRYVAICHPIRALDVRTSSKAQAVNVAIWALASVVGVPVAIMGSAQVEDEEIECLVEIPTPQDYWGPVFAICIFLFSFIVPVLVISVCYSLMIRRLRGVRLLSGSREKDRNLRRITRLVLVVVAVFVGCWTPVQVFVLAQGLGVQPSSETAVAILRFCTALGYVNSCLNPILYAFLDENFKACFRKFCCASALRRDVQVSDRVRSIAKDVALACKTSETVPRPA
# T1 sequence (P35372 whole entry): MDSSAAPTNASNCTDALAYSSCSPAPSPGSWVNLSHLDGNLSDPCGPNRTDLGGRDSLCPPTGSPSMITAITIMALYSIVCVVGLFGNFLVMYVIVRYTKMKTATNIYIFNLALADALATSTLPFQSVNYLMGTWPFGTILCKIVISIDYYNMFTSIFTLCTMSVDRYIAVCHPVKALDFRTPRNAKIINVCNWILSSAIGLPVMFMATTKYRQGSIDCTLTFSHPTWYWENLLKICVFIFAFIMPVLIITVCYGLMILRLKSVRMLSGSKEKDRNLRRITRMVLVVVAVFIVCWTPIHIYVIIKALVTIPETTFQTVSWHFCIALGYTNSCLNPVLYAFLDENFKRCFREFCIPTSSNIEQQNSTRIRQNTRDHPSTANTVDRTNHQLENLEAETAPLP
Compound,mu pEC50 (CL95%) (human mu receptor; Table 1 series),pEC50_mu (human mu receptor),activation at 10 µM (human mu receptor) [%],"NOP pEC50 (CL95%) (human NOP receptor; Table 1 series, FlexStation II)",NOP/mu CR (concentration ratio) (human NOP receptor; Table 1 series),Emax (human NOP receptor; [1]) [%],"Emax (human mu receptor; read-out: mu Emax ± S.E.M, Table 1 series) [%]","Emax (human mu receptor; read-out: mu Emax ± S.E.M., Table 3 series) [%]","Emax (human NOP receptor; read-out: NOP Emax ± S.E.M., Table 3 series, percent over the baseline fluorescence) [%]",mu pEC50 (CL95%) (human mu receptor; Table 2 series),"Emax (human mu receptor; read-out: mu Emax ± S.E.M., Table 2 series) [%]",NOP pEC50 (CL95%) (human NOP receptor; Table 2 series),NOP/mu CR (concentration ratio) (human NOP receptor; Table 2 series),"Emax (human NOP receptor; read-out: NOP Emax ± S.E.M., Table 2 series, percent over the baseline fluorescence) [%]"
"CC[C@H](NC(=O)[C@H](Cc1ccccc1)NC(=O)CNC(=O)CNC(=O)[C@@H](N)Cc1ccc(O)cc1)C(=O)NCC(=O)N[C@@H](C)C(=O)N[C@@H](CCCNC(=N)N)C(=O)N[C@@H](CCCCN)C(=O)N[C@@H](CO)C(=O)N[C@@H](C)C(=O)N[C@@H](CCCNC(=N)N)C(=O)N[C@@H](CCCCN)C(N)=O [Compound 7, [Tyr^1,Abu^5]N/OFQ(1-13)-NH2] (H-YGGF[Abu]GARKSARK-NH2)",crc incomplete; 10 μM: 213 ± 37,crc incomplete,213 ± 37,8.15 (7.61–8.69),0.007,366 ± 20,,,,,,,,
"YGGFVGARKSARK-NH2 [Compound 5, [Tyr^1,Val^5]N/OFQ(1-13)-NH2]",crc incomplete; 10 μM: 254 ± 19,crc incomplete,254 ± 19,8.70 (8.53–8.87),0.002,334 ± 19,,,,,,,,
"YGGFYGARKSARK-NH2 [Compound 14, [Tyr^1,5]N/OFQ(1-13)-NH2]",6.76 (6.34–7.18),,,7.07 (6.68–7.46),0.49,332 ± 19,357 ± 21,,,,,,,
"YGGFK(Ac)GARKSARK-NH2 [Compound 6, [Tyr^1,Lys(Ac)^5]N/OFQ(1-13)-NH2]",crc incomplete; 10 μM: 161 ± 31,crc incomplete,161 ± 31,8.55 (7.88–9.22),0.003,370 ± 16,,,,,,,,
"Cc1cc(O)cc(C)c1C[C@H](N)C(=O)NCC(=O)NCC(=O)N[C@@H](Cc1ccccc1)C(=O)N[C@H](C(=O)NCC(=O)N[C@@H](C)C(=O)N[C@@H](CCCNC(=N)N)C(=O)N[C@@H](CCCCN)C(=O)N[C@@H](CO)C(=O)N[C@@H](C)C(=O)N[C@@H](CCCNC(=N)N)C(=O)N[C@@H](CCCCN)C(N)=O)[C@@H](C)O [Compound 29, [Dmt^1]N/OFQ(1-13)-NH2, reference compound]",,,,,,,,311 ± 20,294 ± 22,,,,,
"YGGFFGARKSARK-NH2 [Compound 15, [Tyr^1,Phe^5]N/OFQ(1-13)-NH2]",,,,,,,,,,6.41 (5.85–6.97),315 ± 32,7.72 (7.56–7.87),0.05,242 ± 11
